Literature values as cited in patent US20260174720A1, “NERVONIC ACID COMPOSITION FOR IMPROVING MEMORY-BASED LEARNING FUNCTION AND A PREPARATION METHOD THEREOF” (Guangzhou Decade Nutrition Technology Co., Ltd., priority 2024, published 2026).

In the case of `CCCCCCCC/C=C\CCCCCCCCCCCCCC(=O)O` [Nervonic acid, cis-15-Tetracosenic Acid], the “solubility in alcohols such as methanol, ethanol” value is listed as “soluble in alcohols” and the solubility in water (room temperature) is listed as “insoluble in water”.
